Results as given in US9353082B2, “Pharmaceutical compounds” (BIAL—PORTELA & CA, S.A., priority 2008, dated 2016).

What was measured:
FAAH [1] = target: T1, FAAH (Rattus norvegicus, UniProt P97612); test: In vitro FAAH activity in rat brain membranes, 3H-AEA substrate, % of control; assay type: biochemical, Wistar rats; settings: rat brain membranes, compound at 100 nM, low value = strong inhibitor
T1 construct: Frozen brains (without cerebellum) from Wistar rats were used; from tissue; host or cells: Wistar rat brain (without cerebellum), washed membrane pellets
T1 sequence (P97612 1-579): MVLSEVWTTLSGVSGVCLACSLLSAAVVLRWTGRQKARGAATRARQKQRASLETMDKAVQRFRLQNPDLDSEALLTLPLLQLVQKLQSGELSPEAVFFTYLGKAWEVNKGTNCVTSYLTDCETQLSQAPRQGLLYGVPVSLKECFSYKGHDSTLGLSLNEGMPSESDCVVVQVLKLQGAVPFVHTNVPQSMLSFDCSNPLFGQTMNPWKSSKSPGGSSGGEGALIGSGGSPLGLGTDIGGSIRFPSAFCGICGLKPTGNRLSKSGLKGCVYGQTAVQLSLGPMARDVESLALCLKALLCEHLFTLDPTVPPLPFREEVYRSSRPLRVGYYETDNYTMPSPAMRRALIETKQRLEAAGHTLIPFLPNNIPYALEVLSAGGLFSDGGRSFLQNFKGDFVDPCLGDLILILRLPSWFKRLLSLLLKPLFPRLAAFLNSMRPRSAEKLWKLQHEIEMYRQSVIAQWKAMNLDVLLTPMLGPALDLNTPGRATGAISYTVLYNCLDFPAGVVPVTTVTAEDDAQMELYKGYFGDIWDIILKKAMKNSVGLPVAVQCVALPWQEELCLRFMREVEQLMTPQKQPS
Procedure, shortened: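 FAAH activity measured as 3H-ethanolamine released from 2 μM [3H]AEA over 10 min by rat brain membrane preparation, after 15 min 37 °C preincubation with test compound at 10 or 0.1 μM. Charcoal-separated supernatant scintillation-counted; values expressed as % of control minus no-protein blank.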

FAAH [2] = target: T2, FAAH (Mus musculus, UniProt O08914); test: In vivo FAAH inhibition after oral dosing, remaining activity in brain homogenate (BRh, central nervous tissue); set-up: species or system NMRI mice; settings: brain homogenate, low value = strong inhibitor; for In Vivo BRh 3 mg·kg 8 h (remaining FAAH activity, % of control): 8 h after dosing; for In Vivo BRh 3 mg · kg · 8 h (remaining FAAH activity): 3 mg/kg oral
T2 construct: A fragment of liver, left lung lobe and brain without cerebellum were removed; from tissue; host or cells: male NMRI mice; brain (without cerebellum) and liver homogenates
T2 sequence (O08914 1-579): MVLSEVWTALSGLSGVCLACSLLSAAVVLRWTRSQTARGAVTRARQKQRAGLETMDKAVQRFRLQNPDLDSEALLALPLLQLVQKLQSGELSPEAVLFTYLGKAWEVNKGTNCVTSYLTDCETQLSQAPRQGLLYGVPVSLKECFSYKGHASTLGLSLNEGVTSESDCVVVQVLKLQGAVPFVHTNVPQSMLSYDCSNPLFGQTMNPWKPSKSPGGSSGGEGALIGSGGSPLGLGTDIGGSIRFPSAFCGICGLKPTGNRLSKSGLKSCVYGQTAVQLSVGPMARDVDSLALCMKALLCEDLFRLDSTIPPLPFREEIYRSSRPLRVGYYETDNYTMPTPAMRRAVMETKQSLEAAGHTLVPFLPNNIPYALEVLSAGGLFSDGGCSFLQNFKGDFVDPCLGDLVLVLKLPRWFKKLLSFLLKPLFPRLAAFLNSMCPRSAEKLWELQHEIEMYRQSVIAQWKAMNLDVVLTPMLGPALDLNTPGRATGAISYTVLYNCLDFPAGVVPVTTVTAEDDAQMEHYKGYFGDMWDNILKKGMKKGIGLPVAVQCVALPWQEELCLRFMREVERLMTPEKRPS
Method: (§1) The in vivo test was performed according to the protocol described below. BRh indicates inhibition in central nervous tissue and LVh indicates inhibition in peripheral tissue, in this case liver.
(§2) The animals used for experiments were male NMRI mice (weighing 27-44 g) obtained from Interfauna Ibérica (Spain). Mice were kept 5 per cage, under controlled environmental conditions (12 hr light/dark cycle and room temperature 22±1° C.). Food and tap water were allowed ad libitum and the experiments were all carried out during daylight hours.
(§3) Animals were administered 30 mg/kg or 3 mg/kg compounds of the invention via oral route (8 ml/kg; compound suspended in 0.5% carboxymethylcellulose (CMC) or solubilized in water) or vehicle (controls) using animal feeding stainless steel curve needles (Perfectum, U.S.A.). Fifteen minutes before sacrifice animal were anesthetized with pentobarbital 60 mg/kg administered intraperitoneally. A fragment of liver, left lung lobe and brain without cerebellum were removed and put in plastic vials containing membrane buffer (3 mM MgCl2, 1 mM EDTA, 50 mM Tris HCl pH 7.4). Tissues were stored at −30° C. until analysis.
(§4) Animals were always fasted overnight before administration of compounds except for time points of >18 h, where food was removed on the morning of day of administration and the compound was administered in the afternoon of the same day. Animals were then given water but nothing else.
(§5) Tissues were thawed on ice and were homogenized in 10 volumes of membrane buffer (3 mM MgCl2, 1 mM EDTA, 50 mM Tris HCl pH 7.4) with either Potter-Elvejhem (brains—8 strokes at 500 rpm) or Heidolph Diax (livers—2 strokes at position 5 for 20 sec with 30 sec pauses).
(§6) Total protein in tissues was determined with the BioRad Protein Assay (BioRad) using a standard curve of BSA (50-250 μg/ml).
(§7) Reaction mix (total volume of 200 μl) contained: […] (2 μM AEA+5 nM ^3H-AEA), 0.1% fatty acid free BSA, 15 μg (brain), 5 μg (liver) or 50 μg (lung) protein, in 1 mM EDTA, 10 mM Tris pH 7.6. After a […] pre-incubation period at 37° C., reaction was started by the addition of the substrate solution (cold AEA+radiolabelled AEA+BSA). Reaction was carried out for 10 min (brain and lung) or […] (liver) before termination by the addition of 400 μl activated charcoal suspension (8 g charcoal in 32 ml 0.5 M HCl in continuous agitation). After a […] incubation period at room temperature with agitation, charcoal was sedimented by centrifugation in microfuge (10 min at 13000 rpm). 200 μl of the supernatant were added to 800 μl Optiphase Supermix scintillation cocktail previously distributed in 24-well plates. Counts per minute (cpm) were determined in a MicrobetaTriLux scintillation counter.
(§8) In each assay blanks (without protein) were prepared.
(§9) The percentage of remaining enzymatic activity was calculated in respect to controls and after blank subtraction.

FAAH [3] = target: T2, FAAH; test: In vivo FAAH inhibition after oral dosing, remaining activity in liver homogenate (LVh, peripheral tissue); set-up: species or system NMRI mice; settings: liver homogenate, low value = strong inhibitor; for In Vivo LVh 3 mg·kg 8 h (remaining FAAH activity, % of control): 8 h after dosing; for In Vivo LVh 3 mg · kg · 8 h (remaining FAAH activity): 3 mg/kg oral
Method: as §1, §2, §3, §4, §5, §6, §7, §8, §9

In the case of `CC1(C)COCN1C(=O)n1cnc(-c2ccc(Cl)cc2)c1Cl` [Compound 280, (5-chloro-4-(4-chlorophenyl)-1H-imidazol-1-yl)(4,4-dimethyloxazolidin-3-yl)methanone], the “In Vitro 100 nM (FAAH activity, % of control)” value (FAAH [1]) is reported as 111.8 % of control.

In the case of `COc1ccc(-c2cn(C(=O)N(C)C3CCCC3)cn2)cc1OC` [Compound 281, N-cyclopentyl-4-(3,4-dimethoxyphenyl)-N-methyl-1H-imidazole-1-carboxamide], the “In Vitro 100 nM (FAAH activity, % of control)” value (FAAH [1]) is reported as 25.5 % of control.

In the case of `CN(C(=O)n1cnc(-c2ccccc2)n1)C1CCCCC1` [Compound 283, N-cyclohexyl-N-methyl-3-phenyl-1H-1,2,4-triazole-1-carboxamide], the “In Vitro 100 nM (FAAH activity, % of control)” value (FAAH [1]) is reported as 75.1 % of control.

With `CC1(C)COCN1C(=O)n1cnc(-c2ccccc2)n1` [Compound 285, (4,4-dimethyloxazolidin-3-yl)(3-phenyl-1H-1,2,4-triazol-1-yl)methanone] the “In Vitro 100 nM (FAAH activity, % of control)” value (FAAH [1]) was 85.4 % of control.

For `CN(C(=O)n1cnc(-c2cccc(OCc3ccccc3)c2)c1)C12CC3CC(CC(C3)C1)C2` [Compound 288, 4-[3-(benzyloxy)phenyl]-N-methyl-N-tricyclo[3.3.1.13,7]dec-1-yl-1H-imidazole-1-carboxamide], the “In Vitro 100 nM (FAAH activity, % of control)” value (FAAH [1]) was 114.8 % of control.

In the case of `CN(C(=O)n1cnc(-c2cccc(-c3ccccc3)c2)c1)C12CC3CC(CC(C3)C1)C2` [Compound 290, 4-biphenyl-3-yl-N-methyl-N-tricyclo[3.3.1.13,7]dec-1-yl-1H-imidazole-1-carboxamide], the “In Vivo BRh 3 mg·kg 8 h (remaining FAAH activity, % of control)” value (FAAH [2]) is reported as 115 % of control and the “In Vivo LVh 3 mg·kg 8 h (remaining FAAH activity, % of control)” value (FAAH [3]) is reported as 112.4 % of control.

`COc1ccc2nnn(C(=O)N3COCC3(C)C)c2c1` [Compound 293, (4,4-dimethyloxazolidin-3-yl)(6-methoxy-1H-benzo[d][1,2,3]triazol-1-yl)methanone] was tested, and the “In Vivo BRh 3 mg·kg 8 h (remaining FAAH activity, % of control)” value (FAAH [2]) was 3.5 % of control and the “In Vivo LVh 3 mg·kg 8 h (remaining FAAH activity, % of control)” value (FAAH [3]) was 1.7 % of control.

`CN(C(=O)n1cnc(-c2ccc(O)cc2)c1)C1CCCC1` [Compound 294, N-cyclopentyl-4-(4-hydroxyphenyl)-N-methyl-1H-imidazole-1-carboxamide] was tested, and the “In Vivo BRh 3 mg·kg 8 h (remaining FAAH activity, % of control)” value (FAAH [2]) was 1.4 % of control and the “In Vivo LVh 3 mg·kg 8 h (remaining FAAH activity, % of control)” value (FAAH [3]) was 1.4 % of control.

For `CC1(C)OC(c2ccccc2)CN1C(=O)n1cnc(-c2ccccc2)c1` (stereo not drawn) [Compound 298, (2,2-dimethyl-5-phenyloxazolidin-3-yl)(4-phenyl-1H-imidazol-1-yl)methanone], the “In Vivo BRh 3 mg·kg 8 h (remaining FAAH activity, % of control)” value (FAAH [2]) was 74.4 % of control and the “In Vivo LVh 3 mg·kg 8 h (remaining FAAH activity, % of control)” value (FAAH [3]) was 59.2 % of control.

`O=C(N1COC(c2ccccc2)C1)n1cnc(-c2ccc(F)c(F)c2)c1` (stereo not drawn) [Compound 308, (4-(3,4-difluorophenyl)-1H-imidazol-1-yl)(5-phenyloxazolidin-3-yl)methanone] was tested, and the “In Vitro 100 nM (FAAH activity, % of control)” value (FAAH [1]) was 2.5 % of control.

For `COc1cc(-c2cn(C(=O)N(C)C3CCCC3)cn2)ccc1F` [Compound 321, N-cyclopentyl-4-(4-fluoro-3-methoxyphenyl)-N-methyl-1H-imidazole-1-carboxamide], the “In Vivo BRh 3 mg·kg 8 h (remaining FAAH activity, % of control)” value (FAAH [2]) was 1.4 % of control and the “In Vivo LVh 3 mg·kg 8 h (remaining FAAH activity, % of control)” value (FAAH [3]) was 1.2 % of control.

In the case of `CN(C(=O)n1cnc(-c2cccc(-c3cccc(C(N)=O)c3)c2)c1)C1CCN(Cc2ccccc2)CC1` [Compound 550, N-(1-benzylpiperidin-4-yl)-4-(3′-carbamoylbiphenyl-3-yl)-N-methyl-1H-imidazole-1-carboxamide], the “In Vivo BRh 3 mg · kg · 8 h (remaining FAAH activity)” value (FAAH [2]) is reported as 94.3 % of control and the “In Vivo LVh 3 mg · kg · 8 h (remaining FAAH activity)” value (FAAH [3]) is reported as 5.7 % of control.

With `CN(C(=O)n1cnc(-c2ccc(-c3noc(=O)[nH]3)cc2)c1)C1CCCCC1` [Compound 551, N-cyclohexyl-N-methyl-4-(4-(5-oxo-4,5-dihydro-1,2,4-oxadiazol-3-yl)phenyl)-1H-imidazole-1-carboxamide] the “In Vivo BRh 3 mg · kg · 8 h (remaining FAAH activity)” value (FAAH [2]) was 85.2 % of control and the “In Vivo LVh 3 mg · kg · 8 h (remaining FAAH activity)” value (FAAH [3]) was 3.8 % of control.

With `CCCN1CCC(N(C)C(=O)n2cnc(-c3cccc(C(=O)NO)c3)c2)CC1` [Compound 552, 4-(3-(hydroxycarbamoyl)phenyl)-N-methyl-N-(1-propylpiperidin-4-yl)-1H-imidazole-1-carboxamide] the “In Vivo BRh 3 mg · kg · 8 h (remaining FAAH activity)” value (FAAH [2]) was 90.2 % of control and the “In Vivo LVh 3 mg · kg · 8 h (remaining FAAH activity)” value (FAAH [3]) was 45 % of control.

With `CN(C(=O)n1cnc(-c2cccc(NC(=N)N)c2)c1)C1CCCCC1.Cl` [Compound 553, N-cyclohexyl-4-(3-guanidinophenyl)-N-methyl-1H-imidazole-1-carboxamide hydrochloride] the “In Vivo BRh 3 mg · kg · 8 h (remaining FAAH activity)” value (FAAH [2]) was 72.3 % of control and the “In Vivo LVh 3 mg · kg · 8 h (remaining FAAH activity)” value (FAAH [3]) was 15.4 % of control.

For `CCCN1CCC(N(C)C(=O)n2cnc(-c3ccc(O)c(C(N)=O)c3)c2)CC1` [Compound 554, 4-(3-carbamoyl-4-hydroxyphenyl)-N-methyl-N-(1-propylpiperidin-4-yl)-1H-imidazole-1-carboxamide], the “In Vivo BRh 3 mg · kg · 8 h (remaining FAAH activity)” value (FAAH [2]) was 102.2 % of control and the “In Vivo LVh 3 mg · kg · 8 h (remaining FAAH activity)” value (FAAH [3]) was 85.6 % of control.

In the case of `CN(C(=O)n1cnc(-c2cccnc2)c1)C1CCN(CC(=O)O)CC1` [Compound 558, 2-(4-(N-methyl-4-(pyridin-3-yl)-1H-imidazole-1-carboxamido)piperidin-1-yl)acetic acid], the “In Vivo BRh 3 mg · kg · 8 h (remaining FAAH activity)” value (FAAH [2]) is reported as 83.1 % of control and the “In Vivo LVh 3 mg · kg · 8 h (remaining FAAH activity)” value (FAAH [3]) is reported as 91.1 % of control.

With `Br.CCN1CCC(N(C)C(=O)n2cnc(-c3ccc(F)c(O)c3)c2)CC1` [Compound 561, N-(1-ethylpiperidin-4-yl)-4-(4-fluoro-3-hydroxyphenyl)-N-methyl-1H-imidazole-1-carboxamide hydrobromide] the “In Vivo BRh 3 mg · kg · 8 h (remaining FAAH activity)” value (FAAH [2]) was 82.2 % of control and the “In Vivo LVh 3 mg · kg · 8 h (remaining FAAH activity)” value (FAAH [3]) was 78.6 % of control.
